Common to all, as to experiment: DTP human tumour cell line panel, 48 h
Assay [1] concerns NCI-H460 lung.
Assay [2] relates to NCI-H226 lung.
Assay [3] concerns MDA-MB-231 breast.
For assay [4], the system named is SK-OV-3 ovarian.
Assay [5] deals with SR leukemia.
The subject of assay [6] is SNB-75 CNS.
For assay [7], the system named is SW-620 colon.
For assay [8], the system named is MCF7 breast.
In assay [9] the test system is UACC-257 melanoma.
Assay [10] has as its system A549 NSCLC.

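48-hour exposure; five concentrations; linearly interpolated endpoints. At the GI50, growth is halved. TGI marks complete inhibition of growth.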 Some results are limits rather than exact numbers.

Take `C=C1C(=O)O[C@H]2[C@H]1CC(=O)/C(C)=C\CC[C@@]1(C)O[C@@H]21`: the GI50 in assay [1] is 3.83 µg/mL; in assay [2], 4.71 µg/mL; in assay [3], 4.58 µg/mL; in [4], 7.86 µg/mL; in assay [5] it was 0.759 µg/mL; in assay [6], 4.93 µg/mL. Also, the GI50 is 1.06 µg/mL in [7], 1.77 µg/mL in assay [8], 3.39 µg/mL in assay [9] and 5.21 µg/mL in assay [10]. The concentration for total growth inhibition (TGI) in assay [1] amounted to 8.08 µg/mL; in assay [2], 9.45 µg/mL; in assay [3], 8.82 µg/mL; in [4], 17.4 µg/mL; in assay [5], 9.5 µg/mL; in assay [6], 9.57 µg/mL. Also, the TGI in assay [7] worked out at 6.15 µg/mL; in assay [8], 10.1 µg/mL; in [9] it was 6.99 µg/mL; in assay [10], 11.3 µg/mL.
With `COC(=O)[C@H](Cc1ccccc1)NC(=O)[C@@H](OC)[C@@H]1Cc2cc3cc(OC4CC(OC5CC(O)C(O)C(C)O5)C(O)C(C)O4)c(C)c(O)c3c(O)c2C(=O)[C@H]1OC1CC(OC2CC(OC3CC(C)(O)C(O)C(C)O3)C(O)C(C)O2)C(O)C(C)O1` (stereo not given in full), the concentration for 50% growth inhibition (GI50) was 0.0197 µM in [1]; 0.018 µM in assay [2]; 0.0305 µM in assay [3]; 0.0509 µM in assay [4]; 0.00736 µM in assay [5]; 0.0186 µM in assay [6]. In addition, the GI50 in assay [7] was 0.0196 µM; in assay [8], 0.00534 µM; in assay [9] it was 0.0103 µM; in assay [10], 0.0532 µM. Besides, the TGI is greater than 14.3 µM in assay [1]; 0.0741 µM in assay [2]; 9.09 µM in assay [3]; greater than 14.3 µM in assay [4]; 1.04 µM in [5]; 0.0575 µM in assay [6]. The TGI in assay [7] was greater than 14.3 µM; in [8], 0.241 µM; in assay [9], 2.54 µM; in assay [10], greater than 14.3 µM.
In the case of `CCCCc1nc2cc(/C=C/C(=O)NO)ccc2n1CCN(CC)CC`, the GI50 in assay [1] is 0.312 µM; in assay [2], 0.608 µM; in assay [3], 0.485 µM; in assay [4], 0.241 µM; in assay [5] it was 0.605 µM; in assay [6] it was 0.227 µM. In addition, the GI50 in [7] was 0.228 µM; in [8], 0.202 µM; in [9], 0.0759 µM; in [10] it was 0.318 µM. In addition, the concentration for total growth inhibition (TGI) is greater than 100 µM in assay [1]; 3.45 µM in [2]; 5.43 µM in assay [3]; 0.88 µM in assay [4]; greater than 100 µM in [5]; 25.4 µM in assay [6]. For the same compound, the TGI was 3.32 µM in assay [7], greater than 20.3 µM in assay [8], 0.58 µM in assay [9] and 2.4 µM in [10].
With `COC(=O)[C@]12CC[C@@H](C)[C@H](C)[C@@H]1C1=CC[C@@H]3[C@@]4(C)C=C(O)C(=O)C(C)=C4CC[C@@]3(C)[C@]1(C)CC2`, the GI50 is 18.9 µM in assay [1]; 12.3 µM in assay [2]; 13 µM in assay [3]; 15.6 µM in assay [4]; 5.29 µM in [5]; 13.9 µM in [6]. The GI50 was 17.3 µM in [7], 10.8 µM in [8], 20 µM in assay [9] and 15.1 µM in assay [10]. For the same compound, the TGI in [1] came out at 37.3 µM; in assay [2], 41 µM; in [3] it was 30.2 µM; in assay [4] it was 38.4 µM; in [5], 28.2 µM; in assay [6], 31.3 µM. Besides, the total growth inhibition concentration (TGI) in [7] stood at 35.7 µM; in assay [8] it was 26.9 µM; in assay [9] it was 42.2 µM; in assay [10], 31.2 µM.
Take `CN1CCN(c2cc(Nc3cc(C4CC4)[nH]n3)nc(Nc3ccc(CC(=O)NCc4cccc(F)c4)cc3)n2)CC1`: the GI50 in [1] was 0.536 µM; in assay [2], 0.534 µM; in assay [3], 0.451 µM; in assay [4], 0.932 µM; in assay [5], 0.293 µM; in [6], 0.168 µM. Further, the 50% growth inhibitory concentration (GI50) in assay [7] was 0.12 µM; in assay [8], 0.108 µM; in [9], 1.13 µM; in assay [10] it was 0.77 µM. The total growth inhibition concentration (TGI) is 3.68 µM in assay [1]; 10.9 µM in assay [2]; 6.16 µM in assay [3]; 12.9 µM in assay [4]; greater than 20.4 µM in assay [5]; 0.778 µM in assay [6]. Moreover, the total growth inhibition concentration (TGI) in [7] is 2.72 µM; in [8] it was 2.05 µM; in assay [9], 2.94 µM; in [10] it was 11.3 µM.
As to `O=C(CC(=O)c1ccccc1NC1=Cc2ccccc2C(=O)C1=O)C(=O)NC1=C(Cl)C(=O)c2ccccc2C1=O`, the TGI in assay [1] is 12.1 µM; in assay [2], 20.1 µM; in [3], 8.95 µM; in assay [4], greater than 83.8 µM; in assay [5], 14.1 µM; in assay [6], 3.19 µM. Also, the TGI in assay [7] was determined as 7.98 µM; in [8], 7.32 µM; in assay [9] it was 4.49 µM; in [10], 16.5 µM.

The values are drawn from PubChem BioAssay (NCI).
